Values quoted from earlier work as cited in US20130164335A1, “METHODS AND COMPOSITIONS FOR CELLULAR DRUG RELEASE” (NATIONAL HEALTH RESEARCH INSTITUTES, priority 2011, published 2013).

Settings: after the first dosage; from a report

Cc1cc2c(s1)Nc1ccccc1N=C2N1CCN(C)CC1 [OLZ, Olanzapine]
time to reach steady-state: one week
